In PMC6757289, “Design and Characterization of SGK3-PROTAC1, an Isoform Specific SGK3 Kinase PROTAC Degrader” (ACS Chemical Biology, 2019):

What was measured:
SGK1 = molecular target: T1, SGK1 (Homo sapiens, UniProt O00141); experiment: SGK1 protein level in HEK293 cells, immunoblot; type: cell-based; details: HEK293, 48 h
T1 sequence (O00141 1-431): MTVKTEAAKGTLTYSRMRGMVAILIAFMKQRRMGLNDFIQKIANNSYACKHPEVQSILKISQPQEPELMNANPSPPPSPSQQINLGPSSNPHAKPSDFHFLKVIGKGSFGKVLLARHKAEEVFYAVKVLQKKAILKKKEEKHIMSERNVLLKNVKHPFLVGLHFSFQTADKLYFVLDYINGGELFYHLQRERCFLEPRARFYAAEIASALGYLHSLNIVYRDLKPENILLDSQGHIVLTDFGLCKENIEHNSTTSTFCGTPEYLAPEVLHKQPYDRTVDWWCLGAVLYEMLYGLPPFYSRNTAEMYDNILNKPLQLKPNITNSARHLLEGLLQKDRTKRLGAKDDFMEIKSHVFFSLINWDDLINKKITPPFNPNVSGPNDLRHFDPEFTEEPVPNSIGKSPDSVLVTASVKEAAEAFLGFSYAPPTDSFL
Protocol: A medium length linker composed of three PEG units was used in the first instance (Figure 1B and C). […] After 48 h of PROTAC treatment, cell lysates were analyzed by immunoblot analysis, and protein expression under each condition was quantified relative to the DMSO-only control. […] DAT1 reduced SGK3 expression by 60% at 1 μM and 75% at 10 μM after 48 h (Figure 1D). […] As expected, inhibition of CUL2 neddylation by means of the inhibitor MLN4924 (3 μM) or proteasome inhibition (MG132, 50 μM) blocked DAT1-induced degradation of SGK3 (Figure S1C).
All cell treatments were carried out as described in figure legends, to a final DMSO concentration of 0.1% (v/v). Lysates were quantified. Immunoblotting was performed using standard procedures, described in brief below. Lysate concentration was quantified by Bradford Assay, and 10 μg of lysate was loaded in the LDS sample buffer for SDS-PAGE electrophoresis on Novex 4–12% Bis–Tris gels. Proteins were electrophoretically transferred onto nitrocellulose membranes (Amersham Protran 0.45 μm NC; GE Healthcare) at 80 V for 80 min on ice in transfer buffer. […] The signal was produced with near-infrared secondary antibodies and detected using a Licor Biosciences Odyssey System, and the signal was quantified in Image Studio Lite.

CDK18 = molecular target: T2, CDK18 (Homo sapiens, UniProt Q07002); experiment: TMT global proteomic analysis of HEK293 cells; type: cell-based; details: HEK293, 0.3 μM, 8 h
T2 construct: global proteomic analysis of HEK293 cells treated in the presence or absence of 0.3 μM SGK3-PROTAC1; endogenous in cells; host or cells: HEK293
T2 sequence (Q07002 whole entry): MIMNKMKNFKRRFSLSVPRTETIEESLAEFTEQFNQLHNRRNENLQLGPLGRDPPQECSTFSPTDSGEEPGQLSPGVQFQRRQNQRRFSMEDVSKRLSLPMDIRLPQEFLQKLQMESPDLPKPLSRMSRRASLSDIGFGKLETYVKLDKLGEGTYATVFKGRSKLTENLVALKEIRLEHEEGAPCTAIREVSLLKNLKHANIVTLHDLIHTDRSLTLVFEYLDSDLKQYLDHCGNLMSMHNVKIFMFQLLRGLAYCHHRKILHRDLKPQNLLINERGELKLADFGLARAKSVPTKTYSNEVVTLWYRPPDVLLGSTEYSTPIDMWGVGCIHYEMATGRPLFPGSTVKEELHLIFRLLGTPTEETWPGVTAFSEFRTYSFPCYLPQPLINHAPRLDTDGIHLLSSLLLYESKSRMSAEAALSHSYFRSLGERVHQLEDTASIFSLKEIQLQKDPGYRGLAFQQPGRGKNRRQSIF
Protocol: To establish the specificity of SGK3-PROTAC1 employing an unbiased approach, we performed quantitative Tandem–Mass–Tag (TMT)-labeled global proteomic analysis of HEK293 cells treated in the presence or absence of 0.3 μM SGK3-PROTAC1 compared to either 0.3 μM cisSGK3-PROTAC1 or DMSO for 8 h. Experiments were undertaken in triplicate, and analysis in Proteome Discoverer v2.2 using the Mascot search engine allowed relative quantification of 8766 proteins.
Figure 4 TMT proteomic analysis of HEK293 cells treated with SGK3-PROTAC1. (A) Cells were treated with DMSO (control), SGK3-PROTAC1 (0.3 μM), or cisSGK3-PROTAC1 (0.3 μM) for 8 h and lysed. Lysates were subjected to immunoblot analysis with the indicated antibodies. (B) Lysates were examined by quantitative proteomics. […]
Cell culture and proteomic sample preparation
Cells pellets were lysed with 2 ml of lysis buffer (8 M Urea, 50 mM Ammonium bicarbonate containing protease inhibitor and phosphatase inhibitor). The sample were left on ice for 15 min and were then sonicated for 5 min in ice-cold water bath under high intensity with 30 sec on and off. After sonication, benzonase® endonuclease (Merck Millipore) with the volume ratio of 1: 100 were added into the lysate to degrade DNA and RNA. The lysate were then centrifuged at 12,000 rpm for 15 min at 4 °C, and supernatants were transferred into new eppendorf tubes. The protein concentration were measured with BCA assay (Pierce™ BCA Protein Assay Kit, Thermo). The lysate from each sample was reduced with 5 mM DTT at 45 °C for 30 min. Lysates were briefly centrifuged and were cool down to room temperature before alkylation in the dark with 10 mM iodoacetamide at room temperature. The alkylation was then quenched by the addition of 5 mM DTT. Samples were first digested by Lys-C with the weight ratio of 1:200 (w/w) for 4 h at 30 °c. Then, sample were diluted with 50 mM ammonium bicarbonate to 1.5 M Urea concentration. Samples were then digested with trypsin (Pierce trypsin, Thermo) at an enzyme to protein ratio of 1:50 (w/w) at room temperature with gentle shaking for overnight.
The digest was stopped by the addition of 1% TFA (v/v), centrifuged at 10,000 g for 10 min at room temperature.
The supernatant were desalted on 200 mg SepPak tC18 cartridge (Waters). Desalted peptides were dried by vacuum centrifugation using Speedvac (Thermo).
TMT labelling and Basic C18 reverse phase (bRP) chromatography fractionation Each sample (200 μg of peptides each) was re-suspended in 100 μL of 100 mM TEAB buffer. The TMT labelling reagents were equilibrated to room temperature and 41 μL anhydrous acetonitrile was added to each reagent channel and softly vortexed for 10 min. Peptides were transferred to the corresponding TMT channels and incubated for 1 h at room temperature. The reaction was quenched with 8 μL of 5% hydroxylamine. To ensure complete labelling, 1 µg of labelled samples from each channel were analyzed by LC-MS/MS prior to mix. After evaluation, the complete TMT labelled 9 samples were then combined, acidified and dried. Sep-Pak desalting was then performed and the elution was dried to completeness.
Ultimate 3000 high-pressure liquid chromatography (HPLC) system (Dionex) were used for basic C18 reverse phase chromatography fractionation operating at 569 µL/min with two buffers: buffer A (10 mM ammonium formate, pH 10) and buffer B (80% ACN, 10 mM ammonium formate, pH 10). […]

SMILES	SGK1 level (SGK1; up to 10 μM)	SGK1 level (SGK1; 0.1 μM)	Abundances (Grouped) (CDK18)	Ratio: (SGK3-PROTAC1) / (cSGK3-PROTAC1) (CDK18)	Ratio: (compound) / (DMSO) (CDK18)
Cc1ccc(F)c(S(=O)(=O)Nc2ccc(-c3nc(OC[C@H]4CN(CCOCCOCCOCC(=O)N[C@H](C(=O)N5C[C@H](O)C[C@H]5C(=O)NCc5ccc(-c6scnc6C)cc5)C(C)(C)C)CCO4)c4cn[nH]c4n3)cc2)c1 [DAT1]	not significantly impacted	–	–	–	–
Cc1ccc(F)c(S(=O)(=O)Nc2ccc(-c3nc(OC[C@H]4CN(CCCCCCOCCOCCOCC(=O)N[C@H](C(=O)N5C[C@H](O)C[C@H]5C(=O)NCc5ccc(-c6scnc6C)cc5)C(C)(C)C)CCO4)c4cn[nH]c4n3)cc2)c1 [SGK3-PROTAC1]	–	without effecting	66.1	0.727	0.652
Cc1ccc(F)c(S(=O)(=O)Nc2ccc(-c3nc(OC[C@H]4CN(CCCCCCOCCOCCOCC(=O)N[C@H](C(=O)N5C[C@@H](O)C[C@H]5C(=O)NCc5ccc(-c6scnc6C)cc5)C(C)(C)C)CCO4)c4cn[nH]c4n3)cc2)c1 [cisSGK3-PROTAC1]	–	–	126.5	–	1.144
